Measured values as given in publication PMC4834188, “Benzyl-1,2,4-triazoles as CB1 Cannabinoid Receptor Ligands: Preparation and In Vitro Pharmacological Evaluation” (International Journal of Medicinal Chemistry, 2016).
“Also recorded” adds a separate entry of the source.

Key:
CB1R [1] = molecular target: T1, CB1R (Rattus norvegicus, UniProt P20272); assay: CB1R radioligand binding assay versus [3H]-SR141716A in rat cerebellar membranes; details: for CB1R affinity (in words): radioligand not given; for Ki: radioligand [3H]-SR141716, mean ± standard error, three independent experiments in triplicate, read-out: K i (nM) CB1R versus [^3H]-SR141617
T1 construct: from tissue; host or cells: rat cerebellum (membranes)
From the text: (§1) Radioligand Binding Assays. […] Competitive radioligand binding assays have been used to evaluate the affinity of selected synthetized triazoles to CB1R in rat cerebellar membranes.

CB1R [2] = molecular target: T1, CB1R; assay: CB1R radioligand binding assay versus [3H]-WIN552122 in rat cerebellar membranes
From the text: as §1

obese animals = test system: obese animals; set-up: method as in PMID 16750544, PMID 18426510, PMID 21951309; details: cited from earlier work

T1 sequence (P20272 whole entry): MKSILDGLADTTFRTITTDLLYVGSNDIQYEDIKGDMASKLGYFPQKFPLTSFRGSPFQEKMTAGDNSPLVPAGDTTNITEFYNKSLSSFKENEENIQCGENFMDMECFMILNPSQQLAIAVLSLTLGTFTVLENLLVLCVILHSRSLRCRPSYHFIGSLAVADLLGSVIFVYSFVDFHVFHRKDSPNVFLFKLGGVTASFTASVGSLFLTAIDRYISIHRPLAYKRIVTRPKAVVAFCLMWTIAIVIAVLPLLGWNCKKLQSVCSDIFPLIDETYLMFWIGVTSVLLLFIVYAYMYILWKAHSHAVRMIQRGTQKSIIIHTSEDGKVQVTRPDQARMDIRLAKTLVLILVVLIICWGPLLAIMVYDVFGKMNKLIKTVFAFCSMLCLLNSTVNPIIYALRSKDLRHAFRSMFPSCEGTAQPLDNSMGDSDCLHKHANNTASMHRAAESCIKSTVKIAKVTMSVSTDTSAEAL

CB1R affinity (in words) (CB1R [1]) | melting point [°C] | SMILES | further results
moderate CB1R affinity |  | CCCCCCCc1nc(-c2ccccc2)nn1Cc1ccccc1 [Compound 7a, 1-Benzyl-5-heptyl-3-phenyl-1H-1,2,4-triazole] | 
moderate CB1R affinity |  | CCCCCCCc1nc(-c2ccccc2)nn1Cc1ccc(Cl)cc1 [Compound 8a, 1-(4-Chlorobenzyl)-5-heptyl-3-phenyl-1H-1,2,4-triazole] | 
 | 70 to 73 | CCCCCCCc1nc(-c2ccccc2)n(Cc2ccc(Cl)cc2Cl)n1 [Compound 9b, 1-(2,4-Dichloro-benzyl)-3-heptyl-5-phenyl-1H-1,2,4-triazole] | 
moderate CB1R affinity |  | CCCCCCCc1nc(-c2ccc(Cl)cc2)nn1Cc1ccccc1 [Compound 10a, 1-Benzyl-3-(4-chlorophenyl)-5-heptyl-1H-1,2,4-triazole] | 
moderate CB1R affinity |  | CCCCCCCc1nc(-c2ccc(Cl)cc2)nn1Cc1ccc(Cl)cc1 [Compound 11a, 1-(4-Chlorobenzyl)-3-(4-chlorophenyl)-5-heptyl-1H-1,2,4-triazole] | 
 | 97 to 99 | CCCCCCCc1nc(-c2ccc(Cl)cc2)n(Cc2ccc(Cl)cc2Cl)n1 [Compound 12b, 5-(4-Chlorophenyl)-1-(2,4-dichlorobenzyl)-3-heptyl-1H-1,2,4-triazole] | 
 | 104 to 105 | CCCCCCCc1nc(-c2ccncc2)n(Cc2ccc(Cl)cc2Cl)n1 [Compound 15b, 4-[1-(2,4-Dichlorobenzyl)-3-heptyl-1H-1,2,4-triazol-5-yl]pyridine] | 
 | 136 to 138 | CCCCCCCc1nc(-c2cc[n+](C)cc2)nn1Cc1ccc(Cl)cc1Cl.[I-] [Compound 18, 4-[1-(2,4-Dichlorobenzyl)-5-heptyl-1H-1,2,4-triazol-3-yl]-1-methylpyridinium Iodide] | 
 |  | CCCCCCc1nc(-c2ccc(Cl)cc2)n(-c2ccc(Cl)cc2Cl)n1 [LH21, 5-(4-chlorophenyl)-1-(2,4-dichlorophenyl)-3-hexyl-1H-1,2,4-triazole, reference compound] | Ki (CB1R [1]): 856 ± 296 nM; antiobesity activity in in vivo assays (obese animals): exhibited antiobesity activity; Ki (CB1R [2]; read-out: K i (nM) CB1R versus [^3H]-WIN552122, radioligand [3H]-WIN552122, mean ± standard error, three independent experiments in triplicate): 748 ± 193 nM

SMILES | CB1R affinity (in words) (CB1R [1]) | melting point [°C] | further results
CCCCCCCc1nc(-c2ccc(Cl)cc2)nn1Cc1ccc(Cl)cc1Cl [Compound 12a, 3-(4-Chlorophenyl)-1-(2,4-dichlorobenzyl)-5-heptyl-1H-1,2,4-triazole] | CB1R affinity in the nanomolar range; also recorded: high affinity for CB1R |  | Ki (CB1R [1]): 13.9 nM; K i (nM) CB1R versus [^3H]-WIN552122 (CB1R [2]; radioligand [3H]-WIN552122, mean ± standard error, three independent experiments in triplicate): 323 nM
